Data reported in patent publication US20160031839A1, “ARGININE […] INHIBITORS AND USES THEREOF” (EPIZYME, INC., priority 2013, published 2016).
Read-outs that look alike come from different tables or passages of the source.

Biological target: T1, CARM1 (PRMT4) (Homo sapiens, UniProt Q86X55)
T1 construct: Flag-CARM1-His was eluted with 200 ug/ml FLAG peptide in buffer A; made in house; host or cells: HEK 293F cells (BacMam baculovirus)
T1 sequence (Q86X55 2-585 isoform Q86X55-1): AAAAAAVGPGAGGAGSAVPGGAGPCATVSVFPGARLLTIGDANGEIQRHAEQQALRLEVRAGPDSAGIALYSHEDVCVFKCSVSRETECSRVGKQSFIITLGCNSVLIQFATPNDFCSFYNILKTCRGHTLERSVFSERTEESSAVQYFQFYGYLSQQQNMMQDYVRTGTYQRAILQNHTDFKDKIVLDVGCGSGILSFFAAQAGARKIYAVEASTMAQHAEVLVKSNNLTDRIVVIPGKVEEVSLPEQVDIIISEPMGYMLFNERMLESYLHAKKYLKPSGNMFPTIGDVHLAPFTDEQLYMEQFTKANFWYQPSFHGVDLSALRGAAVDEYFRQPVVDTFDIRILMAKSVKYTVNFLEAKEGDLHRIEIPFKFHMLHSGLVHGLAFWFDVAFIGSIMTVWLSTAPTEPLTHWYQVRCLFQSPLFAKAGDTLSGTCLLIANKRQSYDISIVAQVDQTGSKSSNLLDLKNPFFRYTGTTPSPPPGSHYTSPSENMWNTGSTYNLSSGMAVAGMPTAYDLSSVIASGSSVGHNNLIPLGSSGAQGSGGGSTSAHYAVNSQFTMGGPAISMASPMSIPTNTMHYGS
Assay: CARM1 Biochemical Assay
Source text: Peptide representative of human histone H3 residues 16-30 was synthesized with an N-terminal linker-affinity tag motif and a C-terminal amide cap by 21st Century Biochemicals. The peptide was purified by high-performance liquid chromatography (HPLC) to greater than 95% purity and confirmed by liquid chromatography mass spectrometry (LC-MS). The sequence was Biot-Ahx-[…]-amide and contained a monomethylated arginine at position 26 (SEQ ID NO.: 14).
Human CARM1 (PRMT4) (NM_199141.1) transcript clone was amplified from an HEK 293 cDNA library, incorporating a flanking 5′ sequence encoding a FLAG tag ([…]) (SEQ ID NO.:6) fused directly to Ala 2 of CARM1 and 3′ sequence encoding a hexa His sequence ([…]) (SEQ ID NO.: 15) fused directly to Ser 608. The gene sequence encoding isoform1 containing a deletion of amino acids 539-561 was amplified subsequently and subcloned into pFastBacMam (Viva Biotech).
Column was washed with 500 mM NaCl in buffer A and Flag-CARM1-His was eluted with 200 ug/ml FLAG peptide in buffer A. Pooled fractions were dialyzed in 20 mM Tris, 150 mM NaCl, 5% glycerol and 1 mM DTT, pH 7.8. The purity of recovered protein was 94.
General Procedure for CARM1 Enzyme Assays on Peptide Substrates.
The assays were all performed in a buffer consisting of 20 mM Bicine (pH=7.6), 1 mM TCEP, 0.005% BSG, and 0.002% Tween 20, prepared on the day of use. Compounds in 100% DMSO (1 ul) were spotted into a polypropylene 384-well V-bottom plates (Greiner) using a Platemate Plus outfitted with a 384-channel head (Thermo Scientific). DMSO (1 ul) was added to Columns 11, 12, 23, 24, rows A-H for the maximum signal control and 1 ul of SAH, a known product and inhibitor of CARM1, was added to columns 11, 12, 23, 24, rows I-P for the minimum signal control. A cocktail (40 ul) containing the CARM1 enzyme was added by Multidrop Combi (Thermo-Fisher). The compounds were allowed to incubate with CARM1 for 30 min at room temperature, then a cocktail (10 ul) containing ^3H-SAM and peptide was added to initiate the reaction (final volume=51 ul). The final concentrations of the components were as follows: CARM1 was 0.25 nM, ^3H-SAM was 30 nM, peptide was 250 nM, SAH in the minimum signal control wells was 1 mM, and the DMSO concentration was 2%. The assays were stopped by the addition of non-radiolabeled SAM (10 ul) to a final concentration of 300 uM, which dilutes the ^3H-SAM to a level where its incorporation into the peptide substrate is no longer detectable. […] The plates were then read in a PerkinElmer TopCount plate reader to measure the quantity of ^3H-labeled peptide bound to the Flashplate surface, measured as disintegrations per minute (dpm) or alternatively, referred to as counts per minute (cpm). […]

[1] = Table 2, biochemical evaluation, read-out: PRMT4 IC50 (class)
[2] = Table 2a, numerical, single experiment or average of multiple experiments, read-out: PRMT4 IC50

Structure (SMILES) | IC50 [1] [µM] | IC50 [2] [µM]
CN(CCN)Cc1ncoc1-c1ccc(C#N)cc1 [Compound 1, 4-(4-(((2-aminoethyl)(methyl)amino)methyl)oxazol-5-yl)benzonitrile] | > 10 | > 10
CN(CCN)Cc1ccnn1-c1ccc(C#N)cc1 [Compound 2, 4-(5-(((2-aminoethyl)(methyl)amino)methyl)-1H-pyrazol-1-yl)benzonitrile] | > 10 | > 10
